Experimental findings from patent publication US20220185811A1, “FGFR4 KINASE INHIBITOR AND PREPARATION METHOD THEREFOR AND USE THEREOF” (SHOUYAO HOLDINGS (BEIJING) CO., LTD., priority 2019, published 2022) are described below.

One experiment addresses FGFR-4 kinase (Homo sapiens, UniProt P22455). In words: FGFR-4 kinase activity, homogeneous time-resolved fluorescence (HTRF) method. In kind it is biochemical. The settings on record: ATP 25 μM, FGFR-4 kinase 1 nM, read-out: FGFR4 IC50. On the procedure: 1. In vitro determination of the protein activity of compounds: The FGFR-4 kinase activity detection platform was established by the homogeneous time-resolved fluorescence (HTRF) method, and the activity of the compound was determined. 1000 μM compounds were subjected to 3-fold gradient dilution in 100% DMSO 11 times (12 concentrations in total), 4 μL diluent from each concentration was added to 96 μL of reaction buffer (50 mM HEPES, pH 7.4, 5 mM MnCl2, 0.1 mM NaVO3, 0.001% Tween-20, 0.01% BAS, 1 mM DTT) and mixed well, as a 4* compound (final concentration of 0.017 nM-1000 nM) for later use. 2 * FGFR-4 kinase (final concentration of 1 nM) was formulated using reaction buffer and 4*substrate (ATP+TK peptide) (TK peptide, HTRF® KinEASETM-TK, purchased from Cisbio, TK peptide, final concentration of 1 μM, ATP final concentration of 25 μ M) was formulated using reaction buffer. 2.5 μL of 4*compound and then 5 μL of 2 * FGFR-4 kinase were added to a 384-well plate (OptiPlate-384, purchased from PerkinElmer), the mixture was mixed by centrifugation, and 2.5 μL of 4 * substrate mixture was added to start the reaction (total reaction volume of 10 µL). The 384-well plate was placed in an incubator 23° C. and stirred for 60 min before the reaction was stopped by the addition of 5 μL of Eu^3+cryptate-labeled anti-phosphotyrosine antibody (TRF® KinEASE™-TK, purchased from Cisbio) and 5 μL of Streptavidin-XL-665 (HTRF® KinEASE™-TK, purchased from Cisbio). After incubation in the incubator for 1 h, fluorescence values (excitation at 320 nm, detecting emitted light at 665 nm and 620 nm, and a ratio of the two as enzyme activity) were read on Envision (purchased from PerkinElmer). The enzyme activity of each compound was measured at 12 concentrations, and the ICso value of the compound was calculated using GraphPad Prism 5.0 software.
The FGFR-4 kinase activity detection platform was established by homogeneous time-resolved fluorescence (HTRF) method, and the activity of compound was determined. 1000 μM compounds were subjected to 3-fold gradient dilution in 100% DMSO 11 times (12 concentrations in total), 4 μL of diluent from each concentration was added to 96 μL of reaction buffer (50 mM HEPES, pH 7.4, 5 mM MnCl2, 0.1 mM NaVO3, 0.001% Tween-20, 0.01% BAS, 1 mM DTT) and mixed well, as a 4* compound (final concentration of 0.017 nM-1000 nM) for later use. 2 * FGFR-4 kinase (final concentration of 1 nM) was formulated using reaction buffer and 4*substrate (ATP+TK peptide)(TK peptide, HTRF® KinEASE™-TK, purchased from Cisbio, TK peptide, final concentration of 1 μM, ATP final concentration of 25 μM) was formulated using reaction buffer. 2.5 μL of 4 * compound and then 5 μL of 2 * FGFR-4 kinase were added to a 384-well plate (OptiPlate-384, purchased from PerkinElmer), the mixture was mixed by centrifugation, and 2.5 μL of 4 * substrate mixture was added to start the reaction (total reaction volume of 10 μL). The 384-well plate was placed in an incubator 23° C. and stirred for 60 min before the reaction was stopped by the addition of 5 μL of Eu^3+cryptate-labled anti-phosphotyrosine antibody (TRF® KinEASE™-TK, purchased from Cisbio) and 5 μL of Streptavidin-XL-665 (HTRF® KinEASE™-TK, purchased from Cisbio). After incubation in the incubator for 1 h, fluorescence values (excitation at 320 nm, detecting emitted light at 665 nm and 620 nm, and a ratio of the two as enzyme activity) were read on Envision (purchased from PerkinElmer). The enzyme activity of each compopund was measured at 12 concentrations, and the ICso value of the compound was calculated using GraphPad prism 5.0 software.
Background: Time-resolved FRET reads energy transfer from a long-lived donor to a nearby acceptor.

Experiment [1] relates to Human hepatoma cells Hep3b. In words: Cell proliferation inhibition, Cell Titer-Glo. The experiment is classed as cell-based. The conditions noted are these: 72 h. The procedure:
2. Determination of cell proliferation activity of compounds:
Cell Titer-Glo ® detection reagent from Promega was used to establish the suspension cell proliferation inhibition screening method. Human hepatoma cells Hep3b (Xiehe Cell Research Center) were cultured in 25 cm^2 or 75 cm^2 plastic tissue culture flasks (Corning®) filled with MEM (Gibco®) medium supplemented with 10% fetal bovine serum (Hyclone®) under 37° C., 95% air and 5% CO2, and subcultured 2-3 times a week.
(§1) Hep3b cells were seeded in a 96-well cell culture plate (Corning®) at a density of 3×10^3 cells/well, […], and cultured under 37° C., 95% air, and 5% CO2. After 24 h the test compound was added: 10 mM compounds (dissolved in DMSO) were subjected to 3-fold gradient dilution in DMSO , […] of diluent from each concentration was added to […] of serum-free medium, and finally […] of compound diluted in the medium was added to the plate seeded with cells. The final concentration of DMSO in the cell culture medium was 0.1% and the final concentration of the test compound was 0.3 nM-[…]. The above cells were incubated for 3 days under 37° C.
After 3 days, the cell viability assay was performed by the Cell Titer-Glo (Promega) kit, and finally, the inhibitory concentration 50% of the compound on cell proliferation, i.e. the IC 50 value, was calculated by the GraphPad Prism 5.0 program.
as §1, with “DMSO,” for “DMSO ,”, “finally,” for “finally”, “of” for “of the”
After 3 days, the cell viability assay was performed by the Cell Titer-Glo (Promega) kit, and finally the inhibitory concentration 50% of the compound on cell proliferation, i.e. the IC 50 value, was calculated by the GraphPad Prism 5.0 program.
(In ATP-based viability assays light output follows the ATP content of the culture.)

The mark [2] stands for this setting: Hep3B, Table 1, 3 days incubation.
Setting [3] is: Hep3B, Table 2, 3 days incubation.

Like-named read-outs stand apart in the source and are kept apart here.

FGFR-4 kinase, sequence (P22455 22-802): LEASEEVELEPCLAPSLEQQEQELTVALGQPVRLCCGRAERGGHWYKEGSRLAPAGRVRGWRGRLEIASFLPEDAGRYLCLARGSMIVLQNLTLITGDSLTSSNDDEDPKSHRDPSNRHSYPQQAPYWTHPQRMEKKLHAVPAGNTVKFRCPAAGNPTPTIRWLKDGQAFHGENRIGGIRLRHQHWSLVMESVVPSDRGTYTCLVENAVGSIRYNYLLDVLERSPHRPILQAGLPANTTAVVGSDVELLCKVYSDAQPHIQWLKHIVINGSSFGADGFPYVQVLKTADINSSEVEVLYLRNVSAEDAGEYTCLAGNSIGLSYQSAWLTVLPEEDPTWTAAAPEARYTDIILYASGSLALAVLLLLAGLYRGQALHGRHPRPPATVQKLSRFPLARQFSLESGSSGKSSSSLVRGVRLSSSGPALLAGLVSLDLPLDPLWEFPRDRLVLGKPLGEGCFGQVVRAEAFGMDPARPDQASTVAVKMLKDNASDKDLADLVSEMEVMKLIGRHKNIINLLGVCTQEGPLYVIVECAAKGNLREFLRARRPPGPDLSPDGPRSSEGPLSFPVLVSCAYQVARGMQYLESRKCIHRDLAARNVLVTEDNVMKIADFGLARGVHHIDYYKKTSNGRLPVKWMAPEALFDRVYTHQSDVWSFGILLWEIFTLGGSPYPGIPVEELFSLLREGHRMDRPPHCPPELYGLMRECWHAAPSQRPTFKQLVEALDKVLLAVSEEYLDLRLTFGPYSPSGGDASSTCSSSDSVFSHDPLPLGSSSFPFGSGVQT

A word on the IC50: it is the concentration needed to halve the response being measured. For the compound `CC#CC(=O)Nc1cc(-c2cc3c(cn2)cc(-c2c(Cl)c(OC)cc(OC)c2Cl)c2nccn23)c(OC)cc1N1CCOCC1` [Example 29, N-(5-(4-(2,6-dichloro-3,5-dimethoxyphenyl)imidazo[1,2-a][1,6]naphthyridin-8-yl)-4-methoxy-2-morpholinophenyl)but-2-ynamide], the IC50 on FGFR-4 kinase (Table 1) was found to be 2.17 nM; in experiment [1] (setting [2]), 34.4 nM.
The like results for `CC#CC(=O)Nc1cc(-c2cc3c(cn2)cc(-c2c(Cl)c(OC)cc(OC)c2Cl)c2nccn23)c(OC)cc1N1CCS(=O)(=O)CC1` [Example 30, N-(5-(4-(2,6-dichloro-3,5-dimethoxyphenyl)imidazo[1,2-a][1,6]naphthyridin-8-yl)-2-(1,1-dioxidothiomorpholino)-4-methoxyphenyl)but-2-ynamide] were, in that order, 0.947 nM and 46.3 nM.
For `CC#CC(=O)Nc1cc(-c2cc3c(cn2)cc(-c2c(Cl)c(OC)cc(OC)c2Cl)c2nccn23)c(OC)cc1N1CCC(N2CCOCC2)CC1` [Example 31, N-(5-(4-(2,6-dichloro-3,5-dimethoxyphenyl)imidazo[1,2-a][1,6]naphthyridin-8-yl)-4-methoxy-2-(4-morpholinopiperidin-1-yl)phenyl)but-2-ynamide] the same measures were 3.63 nM and 81.3 nM.
On to `CC#CC(=O)Nc1cc(-c2cc3c(cn2)cc(-c2c(Cl)c(OC)cc(OC)c2Cl)c2nccn23)c(OC)cc1N1CCN(C)C2(CC2)C1` [Example 32, N-(5-(4-(2,6-dichloro-3,5-dimethoxyphenyl)imidazo[1,2-a][1,6]naphthyridin-8-yl)-4-methoxy-2-(4-methyl-4,7-diazaspiro[2.5]octan-7-yl)phenyl)but-2-ynamide], for which the IC50 at FGFR-4 kinase (Table 1) turned out to be 6.1 nM; in experiment [1] (setting [2]), 76.8 nM.
Take `C=CC(=O)Nc1cc(-c2cc3c(cn2)cc(-c2c(Cl)c(OC)cc(OC)c2Cl)c2nccn23)c(OC)cc1N1CCN(C(C)=O)CC1` [Example 37, N-(2-(4-acetylpiperazin-1-yl)-5-(4-(2,6-dichloro-3,5-dimethoxyphenyl)imidazo[1,2-a][1,6]naphthyridin-8-yl)-4-methoxyphenyl)acrylamide]: the IC50 was determined as 2.16 nM at FGFR-4 kinase (Table 1) and 107 nM in experiment [1] (setting [2]).
As to `C=CC(=O)Nc1cc(-c2cc3c(cn2)cc(-c2c(Cl)c(OC)cc(OC)c2Cl)c2nccn23)c(OC)cc1N1CC2CCC(C1)O2` [Example 44, N-(2-(8-oxa-3-azabicyclo[3 .2.1]octan-3-yl)-5-(4-(2,6-dichloro-3,5-dimethoxyphenyl)imidazo[1,2-a][1,6]naphthyridin-8-yl)-4-methoxyphenyl)acrylamide], the IC50 at FGFR-4 kinase (Table 1) turned out to be 5.03 nM; in experiment [1] (setting [2]), 113 nM.
For `C=CC(=O)Nc1cc(-c2cc3c(cn2)cc(-c2c(Cl)c(OC)cc(OC)c2Cl)c2nccn23)c(OC)cc1N1CCOCC1` [Example 54, N-(5-(4-(2,6-dichloro-3,5-dimethoxyphenyl)imidazo[1,2-a][1,6]naphthyridin-8-yl)-4-methoxy-2-morpholinophenyl)acrylamide], the IC50 on FGFR-4 kinase (Table 2) turned out to be 0.7 nM; in experiment [1] (Table 2, 3 days incubation) it was 21.5 nM.
On to `C=CC(=O)Nc1cc(-c2cc3c(cn2)cc(-c2c(Cl)c(OC)cc(OC)c2Cl)c2nccn23)c(OC)cc1N1CCN(C#N)CC1` [Example 60, N-(2-(4-cyanopiperazin-1-yl)-5-(4-(2,6-dichloro-3,5-dimethoxyphenyl)imidazo[1,2-a][1,6]naphthyridin-8-yl)-4-methoxyphenyl)acrylamide], for which the figures for the IC50 (at FGFR-4 kinase (Table 2); in experiment [1] (setting [3])) were 0.9 nM and 95.2 nM, respectively.
The like results for `C=CC(=O)Nc1cc(-c2cc3c(cn2)cc(-c2c(Cl)c(OC)cc(OC)c2Cl)c2nccn23)c(OC)cc1N1CCC(N2CCN(C)CC2)CC1` [Example 64, N-(5-(4-(2,6-dichloro-3,5-dimethoxyphenyl)imidazo[1,2-a][1,6]naphthyridin-8-yl)-4-methoxy-2-(4-(4-methylpiperazin-1-yl)piperidin-1-yl)phenyl)acrylamide] were, in that order, 0.3 nM and 69.7 nM.
For `C=CC(=O)Nc1cc(-c2cc3c(cn2)cc(-c2c(Cl)c(OC)cc(OC)c2Cl)c2nccn23)c(OC)cc1N1CCN(C2COC2)CC1` [Example 65, N-(5-(4-(2,6-dichloro-3,5-dimethoxyphenyl)imidazo[1,2-a][1,6]naphthyridin-8-yl)-4-methoxy-2-(4-(oxetan-3-yl)piperazin-1-yl)phenyl)acrylamide] the same measures were 0.9 nM and 22.3 nM.
The like results for `C=CC(=O)Nc1cc(-c2cc3c(cn2)cc(-c2c(Cl)c(OC)cc(OC)c2Cl)c2nccn23)c(OC)cc1N1CCC(N(C)C)CC1` [Example 67] were, in that order, 0.4 nM and 81.3 nM.
